Experiments:
[1] = biological target: Tyrosine-protein kinase JAK1 (Homo sapiens, UniProt P23458); experiment: (§1) Biochemical HTRF Enzyme Assay Protocol: The basic assay protocol is as follows: First, 250 nL of diluted compounds in DMSO were dispensed into the wells of a dry 384-well Black plate (GreinerFluotrac™ catalog number: 781076; Greiner Bio-One GmbH, Frickenhausen, Germany) using a Labcyte Echo® 555 acoustic dispenser ([…], Sunnyvale, Calif., USA). Subsequent reagent additions employed an Agilent™ Bravo™ liquid handling system (Aligent Technologies, Santa Clara, Calif., USA). […] After equilibration, 2 μL of 10×ATP in 1× assay buffer was added to initiate the kinase reaction and the plates were shaken and then incubated at ambient temperature for 120 minutes. At the end of the incubation, 20 μL of 2× stop buffer (Streptavidin-Dylight 650/100 mL catalogue number: 8454B (Invitrogen™/Life Technologies/ThermoFisher Scientific Inc., Waltham, Mass., USA); Europium-tagged pY20 antibody (PerkinElmer™ catalogue number: AD0067 (PerkinElmer™, Waltham, Mass., USA)); EDTA; HEPES; and Triton™ X-100 (Sigma-Aldrich, St. Louis, Mo., USA) was added to quench the reaction.
[2] = biological target: Tyrosine-protein kinase JAK2 (Homo sapiens, UniProt O60674); experiment: as §1
Chain of Tyrosine-protein kinase JAK2 (O60674 whole entry): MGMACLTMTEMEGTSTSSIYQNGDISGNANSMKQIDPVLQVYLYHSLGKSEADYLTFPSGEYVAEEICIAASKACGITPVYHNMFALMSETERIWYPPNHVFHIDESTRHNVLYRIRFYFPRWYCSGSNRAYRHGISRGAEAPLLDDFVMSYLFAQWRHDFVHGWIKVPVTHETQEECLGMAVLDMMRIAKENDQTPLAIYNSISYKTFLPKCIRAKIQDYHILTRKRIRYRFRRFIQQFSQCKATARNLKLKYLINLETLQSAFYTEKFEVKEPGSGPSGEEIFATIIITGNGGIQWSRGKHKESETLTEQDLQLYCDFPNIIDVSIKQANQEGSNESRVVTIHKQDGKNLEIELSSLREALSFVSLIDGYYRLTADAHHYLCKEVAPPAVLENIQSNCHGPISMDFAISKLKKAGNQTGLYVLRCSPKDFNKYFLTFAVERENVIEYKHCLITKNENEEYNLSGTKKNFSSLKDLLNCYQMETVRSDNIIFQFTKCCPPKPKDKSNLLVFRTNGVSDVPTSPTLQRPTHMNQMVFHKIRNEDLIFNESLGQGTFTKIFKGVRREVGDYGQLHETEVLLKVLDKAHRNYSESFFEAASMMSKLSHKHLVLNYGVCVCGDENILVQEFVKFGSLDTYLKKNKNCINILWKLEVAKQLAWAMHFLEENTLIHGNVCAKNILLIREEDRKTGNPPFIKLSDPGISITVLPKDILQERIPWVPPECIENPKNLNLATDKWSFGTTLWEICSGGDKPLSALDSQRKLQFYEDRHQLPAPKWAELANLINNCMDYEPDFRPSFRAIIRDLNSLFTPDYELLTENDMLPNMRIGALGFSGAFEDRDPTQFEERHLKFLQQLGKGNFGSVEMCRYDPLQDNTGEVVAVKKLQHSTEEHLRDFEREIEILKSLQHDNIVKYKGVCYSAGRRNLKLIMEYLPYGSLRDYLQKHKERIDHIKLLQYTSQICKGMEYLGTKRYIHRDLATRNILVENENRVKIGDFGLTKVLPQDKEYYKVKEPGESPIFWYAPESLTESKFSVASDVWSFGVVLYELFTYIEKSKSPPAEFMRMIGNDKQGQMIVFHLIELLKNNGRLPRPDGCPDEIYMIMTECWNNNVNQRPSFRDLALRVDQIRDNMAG

Chain of Tyrosine-protein kinase JAK1 (P23458 whole entry): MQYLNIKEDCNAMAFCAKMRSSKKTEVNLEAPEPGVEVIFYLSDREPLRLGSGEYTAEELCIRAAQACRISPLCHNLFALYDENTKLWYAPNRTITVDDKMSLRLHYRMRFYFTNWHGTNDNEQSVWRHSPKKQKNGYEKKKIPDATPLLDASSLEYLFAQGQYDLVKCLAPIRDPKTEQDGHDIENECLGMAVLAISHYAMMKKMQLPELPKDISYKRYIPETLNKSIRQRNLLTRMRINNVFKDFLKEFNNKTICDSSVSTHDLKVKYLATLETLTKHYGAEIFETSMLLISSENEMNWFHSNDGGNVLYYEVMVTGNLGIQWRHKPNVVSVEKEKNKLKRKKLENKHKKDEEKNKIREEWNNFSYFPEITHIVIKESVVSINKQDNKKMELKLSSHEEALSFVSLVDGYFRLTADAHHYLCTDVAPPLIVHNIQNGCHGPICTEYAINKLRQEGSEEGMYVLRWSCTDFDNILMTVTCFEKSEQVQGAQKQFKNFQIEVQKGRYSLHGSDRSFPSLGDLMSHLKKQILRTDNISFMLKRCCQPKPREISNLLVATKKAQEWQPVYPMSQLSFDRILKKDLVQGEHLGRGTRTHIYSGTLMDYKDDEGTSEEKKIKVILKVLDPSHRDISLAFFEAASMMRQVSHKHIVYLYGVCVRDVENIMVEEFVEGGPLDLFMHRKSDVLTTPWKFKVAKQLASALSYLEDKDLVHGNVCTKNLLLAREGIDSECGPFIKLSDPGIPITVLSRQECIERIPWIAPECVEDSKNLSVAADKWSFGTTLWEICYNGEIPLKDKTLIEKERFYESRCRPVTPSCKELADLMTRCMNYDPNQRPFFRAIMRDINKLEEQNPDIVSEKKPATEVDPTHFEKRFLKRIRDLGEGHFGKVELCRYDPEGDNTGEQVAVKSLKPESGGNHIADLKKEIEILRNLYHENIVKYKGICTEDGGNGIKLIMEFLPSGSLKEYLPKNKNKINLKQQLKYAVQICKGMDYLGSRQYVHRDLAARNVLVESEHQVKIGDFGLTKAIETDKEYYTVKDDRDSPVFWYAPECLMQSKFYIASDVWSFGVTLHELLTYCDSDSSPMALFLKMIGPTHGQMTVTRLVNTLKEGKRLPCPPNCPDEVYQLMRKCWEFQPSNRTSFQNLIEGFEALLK

SMILES: N#C[C@H]1CCOC[C@@H]1n1cc(C(N)=O)c(Nc2ccc(OC(F)(F)F)cc2)n1
- IC50 [1]: 0.16 nM
- IC50 [2]: 1.35 nM

SMILES: N#C[C@H]1CCOC[C@@H]1n1cc(C(N)=O)c(Nc2ccc(Cl)c(Cl)c2)n1
- IC50 [1]: 2.09 nM

Source: ChEMBL document CHEMBL5727955, “Aminopyrazoles as janus kinase inhibitors” (2020)
